What was measured:
Assay in all cases: relative viability (nuclei count vs DMSO), 5 days (fraction); higher = more cells survive
[1] = compound: C1CN(CCC1C(C2=CC3=C(C=C2)OCO3)(C4=CC5=C(C=C4)OCO5)O)C(=O)OC6=CC=C(C=C6)[N+](=O)[O-] [JZL-184] + CS(=O)(=O)N1CCN(Cc2cc3nc(-c4cccc5[nH]ncc45)nc(N4CCOCC4)c3s2)CC1 [Pictilisib] (partner 1 µM)
Summary of the method: (§1)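 Relative viability is defined as nuclei in treated wells over nuclei in vehicle wells. Duplicate plates were run and medians reported. Lung cancer cell lines in 1536-well plates were dosed by pin tool one day after seeding, with one drug or with a fixed anchor-drug dose plus five library-drug doses (not always all listed) in √10 steps, and nuclei were counted after 5 days.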

[2] = compound: C1CN(CCC1C(C2=CC3=C(C=C2)OCO3)(C4=CC5=C(C=C4)OCO5)O)C(=O)OC6=CC=C(C=C6)[N+](=O)[O-] [JZL-184] + CS(=O)(=O)CCNCc1ccc(-c2ccc3ncnc(Nc4ccc(OCc5cccc(F)c5)c(Cl)c4)c3c2)o1 [Lapatinib] (partner 2 µM)
Summary of the method: as §1

[3] = compound: C1CN(CCC1C(C2=CC3=C(C=C2)OCO3)(C4=CC5=C(C=C4)OCO5)O)C(=O)OC6=CC=C(C=C6)[N+](=O)[O-] [JZL-184] + COc1cc2c(Oc3ccc(NC(=O)C4(C(=O)Nc5ccc(F)cc5)CC4)cc3F)ccnc2cc1OCCCN1CCOCC1 [Foretinib] (partner 0.25 µM)
Summary of the method: as §1

[4] = compound: C1CN(CCC1C(C2=CC3=C(C=C2)OCO3)(C4=CC5=C(C=C4)OCO5)O)C(=O)OC6=CC=C(C=C6)[N+](=O)[O-] [JZL-184] + C[C@]1(O)C[C@@H](c2nc(-c3ccc4ccc(-c5ccccc5)nc4c3)c3c(N)nccn32)C1 [Linsitinib] (partner 1 µM)
Summary of the method: as §1

[5] = compound: C1CN(CCC1C(C2=CC3=C(C=C2)OCO3)(C4=CC5=C(C=C4)OCO5)O)C(=O)OC6=CC=C(C=C6)[N+](=O)[O-] [JZL-184] + N=C(N)NC(=N)NCCc1ccccc1 [Phenformin] (partner 250 µM)
Summary of the method: as §1

[6] = compound: C1CN(CCC1C(C2=CC3=C(C=C2)OCO3)(C4=CC5=C(C=C4)OCO5)O)C(=O)OC6=CC=C(C=C6)[N+](=O)[O-] [JZL-184] + O=C(c1cc(Cc2n[nH]c(=O)c3ccccc23)ccc1F)N1CCN(C(=O)C2CC2)CC1 [Olaparib] (partner 8 µM)
Summary of the method: as §1

[7] = compound: C1CN(CCC1C(C2=CC3=C(C=C2)OCO3)(C4=CC5=C(C=C4)OCO5)O)C(=O)OC6=CC=C(C=C6)[N+](=O)[O-] [JZL-184] + CC1(C)CCC(c2ccc(Cl)cc2)=C(CN2CCN(c3ccc(C(=O)NS(=O)(=O)c4ccc(N[C@H](CCN5CCOCC5)CSc5ccccc5)c(S(=O)(=O)C(F)(F)F)c4)cc3)CC2)C1 [Navitoclax] (partner 0.5 µM)
Summary of the method: as §1

[8] = compound: C1CN(CCC1C(C2=CC3=C(C=C2)OCO3)(C4=CC5=C(C=C4)OCO5)O)C(=O)OC6=CC=C(C=C6)[N+](=O)[O-] [JZL-184] + Nc1ncn([C@H]2C[C@H](O)[C@@H](CO)O2)c(=O)n1 [Decitabine] (partner 2 µM)
Summary of the method: as §1

[9] = compound: C1CN(CCC1C(C2=CC3=C(C=C2)OCO3)(C4=CC5=C(C=C4)OCO5)O)C(=O)OC6=CC=C(C=C6)[N+](=O)[O-] [JZL-184] + Cc1nc(NC(=O)N2CCC[C@H]2C(N)=O)sc1-c1ccnc(C(C)(C)C(F)(F)F)c1 [Alpelisib] (partner 2 µM)
Summary of the method: as §1

[10] = compound: C1CN(CCC1C(C2=CC3=C(C=C2)OCO3)(C4=CC5=C(C=C4)OCO5)O)C(=O)OC6=CC=C(C=C6)[N+](=O)[O-] [JZL-184] + C[C@@H](Oc1cc(-c2cnn(C3CCNCC3)c2)cnc1N)c1c(Cl)ccc(F)c1Cl [Crizotinib] (partner 1 µM)
Summary of the method: as §1

[11] = compound: C1CN(CCC1C(C2=CC3=C(C=C2)OCO3)(C4=CC5=C(C=C4)OCO5)O)C(=O)OC6=CC=C(C=C6)[N+](=O)[O-] [JZL-184]
Summary of the method: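 For viability, nuclei in each treated well were divided by nuclei in vehicle wells and the median across plates was taken. Lung cancer cell lines in 1536-well plates were pinned with five library-drug doses (not always all listed) spaced by √10, cultured 5 days without medium change, and imaged at 4× after Hoechst staining, with plates passing only at control CV below 25% and at least one doubling.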

Cell Line: A549
- relative viability ([1]; first compound 0.04 µM): 0.643
- relative viability ([1]; first compound 0.4 µM): 0.451
- relative viability ([1]; first compound 1.265 µM): 0.478
- relative viability ([1]; first compound 4 µM): 0.498
- relative viability ([2]; first compound 0.04 µM): 1.06
- relative viability ([2]; first compound 0.4 µM): 0.967
- relative viability ([2]; first compound 1.265 µM): 0.955
- relative viability ([2]; first compound 4 µM): 1.01
- relative viability ([3]; first compound 0.04 µM): 1.23
- relative viability ([3]; first compound 0.4 µM): 0.942
- relative viability ([3]; first compound 1.265 µM): 1.06
- relative viability ([3]; first compound 4 µM): 0.976
- relative viability ([4]; first compound 0.04 µM): 0.559
- relative viability ([4]; first compound 0.4 µM): 0.457
- relative viability ([4]; first compound 1.265 µM): 0.519
- relative viability ([4]; first compound 4 µM): 0.633
- relative viability ([5]; first compound 0.04 µM): 0.195
- relative viability ([5]; first compound 0.4 µM): 0.167
- relative viability ([5]; first compound 1.265 µM): 0.164
- relative viability ([5]; first compound 4 µM): 0.112
- relative viability ([6]; first compound 0.04 µM): 0.31
- relative viability ([6]; first compound 0.4 µM): 0.288
- relative viability ([6]; first compound 1.265 µM): 0.382
- relative viability ([6]; first compound 4 µM): 0.367
- relative viability ([7]; first compound 0.04 µM): 1.18
- relative viability ([7]; first compound 0.4 µM): 1
- relative viability ([7]; first compound 1.265 µM): 1.24
- relative viability ([7]; first compound 4 µM): 1.23
- relative viability ([8]; first compound 0.04 µM): 0.278
- relative viability ([8]; first compound 1.265 µM): 0.26
- relative viability ([8]; first compound 4 µM): 0.273
- relative viability ([9]; first compound 0.04 µM): 0.966
- relative viability ([9]; first compound 0.4 µM): 0.588
- relative viability ([9]; first compound 1.265 µM): 0.894
- relative viability ([9]; first compound 4 µM): 0.614
- relative viability ([10]; first compound 0.04 µM): 0.609
- relative viability ([10]; first compound 0.4 µM): 0.765
- relative viability ([10]; first compound 1.265 µM): 0.68
- relative viability ([10]; first compound 4 µM): 0.699
- relative viability ([11]; 0.04 µM): 1.1
- relative viability ([11]; 0.4 µM): 0.928
- relative viability ([11]; 1.265 µM): 1.01
- relative viability ([11]; 4 µM): 0.957

Source: the supplement of paper PMC10307832
